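The compound was tested at five concentrations on cells cultured in 96-well plates, with a 48-hour exposure period. GI50 = concentration required for 50% inhibition of growth.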 The source made the active and inactive calls. No stated cut-off is given here; in the data, active = GI50 up to about 1.1 µM and inactive = higher.
Assays:
Assay in all cases: DTP human tumour cell line panel, 48 h
SF-539 = test system: SF-539
SW-620 = test system: SW-620
SK-OV-3 = test system: SK-OV-3
IGROV-1 = test system: IGROV-1
TK-10 = test system: TK-10
RPMI-8226 = test system: RPMI-8226
SK-MEL-28 = test system: SK-MEL-28
OVCAR-5 = test system: OVCAR-5
A549 = test system: A549
OVCAR-4 = test system: OVCAR-4
HOP-92 = test system: HOP-92
CCRF-CEM = test system: CCRF-CEM
OVCAR-3 = test system: OVCAR-3
KM12 = test system: KM12
SNB-19 = test system: SNB-19
CAKI-1 = test system: CAKI-1
SR = test system: SR

Measured: GI50

Cc1ccc(NC(=O)CC2Sc3ccccc3NC2=O)c(C)c1 (stereo not drawn)
inactive: SF-539 14 µM | SW-620 11.4 µM | SK-OV-3 15.5 µM | IGROV-1 23.6 µM | TK-10 20.2 µM | RPMI-8226 12.8 µM | SK-MEL-28 20.1 µM | OVCAR-5 23.3 µM | A549 16 µM | OVCAR-4 22 µM | HOP-92 17.4 µM | CCRF-CEM 10.7 µM | OVCAR-3 12.2 µM | KM12 4.88 µM | SNB-19 14.7 µM | CAKI-1 21.5 µM

NC(CCSCC(F)F)C(=O)O (stereo not drawn)
inactive: SF-539 > 100 µM | SW-620 > 100 µM | IGROV-1 > 100 µM | TK-10 > 100 µM | SK-MEL-28 > 100 µM | SR > 100 µM | OVCAR-5 > 100 µM | A549 > 100 µM | OVCAR-4 > 100 µM | HOP-92 > 100 µM | CCRF-CEM > 100 µM | OVCAR-3 > 100 µM | KM12 > 100 µM | SNB-19 > 100 µM | CAKI-1 > 100 µM

CC1CCCc2c1c1ccc3c(O)cccc3c1oc2=O (stereo not drawn)
inactive: SW-620 > 100 µM | SK-OV-3 20.7 µM | IGROV-1 39.6 µM | TK-10 28.8 µM | RPMI-8226 55.1 µM | SK-MEL-28 > 100 µM | SR > 100 µM | OVCAR-5 71.8 µM | A549 56.9 µM | OVCAR-4 14.1 µM | CCRF-CEM 67.1 µM | OVCAR-3 64.1 µM | KM12 > 100 µM | SNB-19 34.7 µM | CAKI-1 39.4 µM

CC1=CP(=O)(c2ccccc2)C=C(C)C1=C(Cl)Cl (stereo not drawn)
inactive: SF-539 5.24 µM | SW-620 3.82 µM | SK-OV-3 29.4 µM | IGROV-1 17.3 µM | TK-10 4.68 µM | RPMI-8226 2.5 µM | SK-MEL-28 11.2 µM | A549 6.24 µM | OVCAR-4 12.9 µM | CCRF-CEM 3.93 µM | OVCAR-3 16 µM | KM12 3.37 µM | SNB-19 17.7 µM

COc1cc2c(cc1OC)-c1c(cc(OC)c(OC)c1OC)C2=O
inactive: SF-539 > 100 µM | SW-620 > 100 µM | SK-OV-3 93.3 µM | IGROV-1 > 100 µM | TK-10 > 100 µM | RPMI-8226 > 100 µM | SK-MEL-28 > 100 µM | SR > 100 µM | OVCAR-5 > 100 µM | A549 > 100 µM | HOP-92 > 100 µM | CCRF-CEM 81.7 µM | OVCAR-3 > 100 µM | KM12 > 100 µM | SNB-19 > 100 µM

CCO/S(=N/S(=O)(=O)c1ccccc1)c1ccccc1[N+](=O)[O-] (stereo not drawn)
inactive: SF-539 > 100 µM | SW-620 > 100 µM | SK-OV-3 > 100 µM | IGROV-1 > 100 µM | RPMI-8226 > 100 µM | SK-MEL-28 > 100 µM | SR > 100 µM | OVCAR-5 > 100 µM | A549 > 100 µM | OVCAR-4 44.1 µM | CCRF-CEM 80.2 µM | OVCAR-3 > 100 µM | KM12 > 100 µM | SNB-19 > 100 µM | CAKI-1 > 100 µM

O=C1C2Nc3ccccc3SC2C(=O)N1c1ccc(Br)cc1 (stereo not drawn)
inactive: SF-539 26.4 µM | SW-620 45 µM | SK-OV-3 15.6 µM | IGROV-1 53.1 µM | TK-10 28.8 µM | RPMI-8226 13.1 µM | SK-MEL-28 62.2 µM | OVCAR-5 > 100 µM | A549 31.6 µM | OVCAR-4 12.8 µM | HOP-92 10.9 µM | CCRF-CEM > 10 µM | OVCAR-3 23.7 µM | KM12 28.2 µM | SNB-19 34.3 µM

COc1cc(/C=C\c2ccncc2)cc(OC)c1OC
inactive: SF-539 > 100 µM | SW-620 43.2 µM | IGROV-1 > 100 µM | TK-10 > 100 µM | RPMI-8226 38.3 µM | SK-MEL-28 > 100 µM | OVCAR-5 63.5 µM | A549 69 µM | OVCAR-4 > 100 µM | HOP-92 36.5 µM | CCRF-CEM > 100 µM | OVCAR-3 > 100 µM | KM12 48.1 µM | SNB-19 > 100 µM | CAKI-1 80 µM

CCN(CC)CC(C(=O)Nc1c(C)cccc1C)/C(C)=N\NC(=S)NN (stereo not drawn)
inactive: SF-539 > 100 µM | SW-620 > 100 µM | SK-OV-3 > 100 µM | IGROV-1 > 100 µM | TK-10 > 100 µM | RPMI-8226 > 100 µM | SK-MEL-28 > 100 µM | OVCAR-5 > 100 µM | A549 > 100 µM | HOP-92 > 100 µM | CCRF-CEM > 100 µM | OVCAR-3 > 100 µM | KM12 > 100 µM

CCOC(=O)NC(=O)c1cn(C2CCCCC2)c(=O)[nH]c1=O
inactive: SF-539 39.7 µM | SW-620 17.4 µM | SK-OV-3 77.3 µM | IGROV-1 54.8 µM | TK-10 > 100 µM | RPMI-8226 63.5 µM | SK-MEL-28 > 100 µM | OVCAR-5 > 100 µM | A549 58.7 µM | OVCAR-4 67.6 µM | HOP-92 > 100 µM | CCRF-CEM 33.3 µM | OVCAR-3 > 100 µM | KM12 78.2 µM | SNB-19 > 100 µM | CAKI-1 > 100 µM

N#CCc1nc2c(s1)C(=O)c1ccccc1C2=O
inactive: SF-539 14.8 µM | SW-620 19.1 µM | SK-OV-3 > 100 µM | IGROV-1 3.76 µM | TK-10 21.8 µM | RPMI-8226 5.37 µM | SK-MEL-28 18.2 µM | OVCAR-5 22.6 µM | OVCAR-4 16.9 µM | HOP-92 18.5 µM | OVCAR-3 15.8 µM | KM12 18.5 µM | SNB-19 21.4 µM | CAKI-1 22.2 µM

CC(C)(C)C(=O)C(c1ccc(-c2cscn2)cc1)c1ccc(-c2cscn2)cc1
inactive: SF-539 23.6 µM | SW-620 > 100 µM | SK-OV-3 29.8 µM | IGROV-1 37.8 µM | TK-10 31.9 µM | RPMI-8226 32.1 µM | SK-MEL-28 46.3 µM | OVCAR-5 > 100 µM | A549 29.6 µM | OVCAR-4 3.25 µM | HOP-92 9.55 µM | CCRF-CEM > 100 µM | OVCAR-3 28.1 µM | KM12 > 83.9 µM | SNB-19 28.1 µM | CAKI-1 33.4 µM

COc1cc2c[n+]3ccc4cc(OC)c(OC)cc4c3cc2cc1O
inactive: SF-539 > 100 µM | SW-620 > 100 µM | SK-OV-3 > 100 µM | IGROV-1 > 100 µM | TK-10 > 100 µM | RPMI-8226 > 100 µM | SK-MEL-28 > 100 µM | SR > 100 µM | OVCAR-5 > 100 µM | A549 > 100 µM | HOP-92 > 100 µM | CCRF-CEM > 100 µM | KM12 > 100 µM | SNB-19 > 100 µM

CCOC(=O)NC(=O)c1cn(CCCOC(=O)NCCCCCCNC(=O)OCCCn2c(=O)c(C(=O)NC(=O)OCC)cn(C)c2=O)c(=O)n(C)c1=O
inactive: SW-620 > 100 µM | SK-OV-3 > 100 µM | IGROV-1 > 100 µM | TK-10 88.7 µM | RPMI-8226 > 100 µM | SK-MEL-28 > 100 µM | OVCAR-5 > 100 µM | A549 > 100 µM | OVCAR-4 > 100 µM | HOP-92 > 100 µM | CCRF-CEM > 100 µM | OVCAR-3 > 100 µM | KM12 > 100 µM | CAKI-1 > 100 µM

CCOC(=O)C(=O)Nc1nc2ccc(OC)cc2s1
inactive: SF-539 > 100 µM | SW-620 > 100 µM | SK-OV-3 > 100 µM | IGROV-1 > 100 µM | TK-10 > 100 µM | RPMI-8226 > 100 µM | SK-MEL-28 > 100 µM | OVCAR-5 > 100 µM | A549 > 100 µM | OVCAR-4 > 100 µM | HOP-92 > 100 µM | CCRF-CEM > 100 µM | OVCAR-3 > 100 µM | KM12 > 100 µM | SNB-19 > 100 µM | CAKI-1 > 100 µM

c1c[nH]c(Cc2nc(Cc3c[nH]cn3)c[nH]2)n1
inactive: SF-539 27.2 µM | SW-620 6.73 µM | SK-OV-3 9.29 µM | IGROV-1 16.5 µM | TK-10 67.5 µM | RPMI-8226 10.1 µM | SK-MEL-28 28.2 µM | OVCAR-5 1.53 µM | A549 3.96 µM | OVCAR-4 4.45 µM | HOP-92 22 µM | CCRF-CEM 5.06 µM | OVCAR-3 55.8 µM | KM12 7.64 µM | SNB-19 22.5 µM | CAKI-1 27.9 µM

Nc1ncnc2c1ncn2C1(CO)OC(CO)C(O)C1O (stereo not drawn)
inactive: SW-620 > 100 µM | SK-OV-3 > 100 µM | TK-10 > 100 µM | RPMI-8226 > 100 µM | SK-MEL-28 > 100 µM | SR > 100 µM | OVCAR-5 > 100 µM | A549 > 100 µM | OVCAR-4 > 100 µM | HOP-92 > 100 µM | CCRF-CEM > 100 µM | KM12 > 100 µM | SNB-19 > 100 µM | CAKI-1 > 100 µM

Clc1cc2nc[nH]c2cc1Cl
inactive: SF-539 > 100 µM | SW-620 > 100 µM | SK-OV-3 > 100 µM | IGROV-1 > 100 µM | TK-10 > 100 µM | RPMI-8226 > 100 µM | SK-MEL-28 > 100 µM | OVCAR-5 > 100 µM | A549 > 100 µM | OVCAR-4 > 100 µM | HOP-92 56 µM | CCRF-CEM > 100 µM | OVCAR-3 > 100 µM | KM12 71.8 µM | SNB-19 > 100 µM | CAKI-1 > 100 µM

— ChEMBL document CHEMBL1201862, “PubChem BioAssay data set” (2004)
